Data: PubChem BioAssay (NCI)
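96-well plates; 48 h exposure; 5 concentrations. Endpoints by linear interpolation between flanking doses. Not reached: highest tested concentration assigned. TGI marks complete inhibition of growth.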

How the values were obtained:
Experiment in all cases: DTP human tumour cell line panel, 48 h
786-0 renal = test system: 786-0 renal
A498 renal = test system: A498 renal
ACHN renal = test system: ACHN renal
BT-549 breast = test system: BT-549 breast
CAKI-1 renal = test system: CAKI-1 renal
COLO 205 colon = test system: COLO 205 colon
DU-145 prostate = test system: DU-145 prostate
EKVX NSCLC = test system: EKVX NSCLC
HCC-2998 colon = test system: HCC-2998 colon
HCT-116 colon = test system: HCT-116 colon
HCT-15 colon = test system: HCT-15 colon
HL-60(TB) leukemia = test system: HL-60(TB) leukemia
HOP-62 NSCLC = test system: HOP-62 NSCLC
HS 578T breast = test system: HS 578T breast
HT29 colon = test system: HT29 colon
IGROV1 ovarian = test system: IGROV1 ovarian
K-562 leukemia = test system: K-562 leukemia
KM12 colon = test system: KM12 colon
LOX IMVI melanoma = test system: LOX IMVI melanoma
MALME-3M melanoma = test system: MALME-3M melanoma
MCF7 breast = test system: MCF7 breast
MDA-MB-231 breast = test system: MDA-MB-231 breast
MDA-MB-435 = test system: MDA-MB-435
MDA-N = test system: MDA-N
MOLT-4 leukemia = test system: MOLT-4 leukemia
NCI-H226 lung = test system: NCI-H226 lung
NCI-H23 lung = test system: NCI-H23 lung
NCI-H460 lung = test system: NCI-H460 lung
NCI-H522 lung = test system: NCI-H522 lung
NCI/ADR-RES ovarian = test system: NCI/ADR-RES ovarian
OVCAR-3 ovarian = test system: OVCAR-3 ovarian
OVCAR-4 ovarian = test system: OVCAR-4 ovarian
OVCAR-5 ovarian = test system: OVCAR-5 ovarian
OVCAR-8 ovarian = test system: OVCAR-8 ovarian
PC-3 prostate = test system: PC-3 prostate
RPMI-8226 leukemia = test system: RPMI-8226 leukemia
RXF 393 renal = test system: RXF 393 renal
SF-268 CNS = test system: SF-268 CNS
SF-295 CNS = test system: SF-295 CNS
SK-MEL-2 melanoma = test system: SK-MEL-2 melanoma
SK-MEL-28 melanoma = test system: SK-MEL-28 melanoma
SK-MEL-5 melanoma = test system: SK-MEL-5 melanoma
SN12C renal = test system: SN12C renal
SNB-19 CNS = test system: SNB-19 CNS
SNB-75 CNS = test system: SNB-75 CNS
SR leukemia = test system: SR leukemia
SW-620 colon = test system: SW-620 colon
T-47D breast = test system: T-47D breast
TK-10 renal = test system: TK-10 renal
U251 CNS = test system: U251 CNS
UACC-257 melanoma = test system: UACC-257 melanoma
UACC-62 melanoma = test system: UACC-62 melanoma
UO-31 renal = test system: UO-31 renal
A549 NSCLC = test system: A549 NSCLC
CCRF-CEM leukemia = test system: CCRF-CEM leukemia
HOP-92 NSCLC = test system: HOP-92 NSCLC
M14 melanoma = test system: M14 melanoma
SF-539 CNS = test system: SF-539 CNS
SK-OV-3 ovarian = test system: SK-OV-3 ovarian

SMILES: O=C1NC(=S)N/C1=C\c1ccc(Sc2ccccc2C(=O)O)s1
- TGI (786-0 renal): > 100 µM
- TGI (A498 renal): > 100 µM
- TGI (ACHN renal): > 100 µM
- TGI (BT-549 breast): > 100 µM
- TGI (CAKI-1 renal): > 100 µM
- TGI (COLO 205 colon): > 100 µM
- TGI (DU-145 prostate): > 100 µM
- TGI (EKVX NSCLC): > 100 µM
- TGI (HCC-2998 colon): > 100 µM
- TGI (HCT-116 colon): > 100 µM
- TGI (HCT-15 colon): > 100 µM
- TGI (HL-60(TB) leukemia): > 100 µM
- TGI (HOP-62 NSCLC): > 100 µM
- TGI (HS 578T breast): > 100 µM
- TGI (HT29 colon): > 100 µM
- TGI (IGROV1 ovarian): > 100 µM
- TGI (K-562 leukemia): > 100 µM
- TGI (KM12 colon): > 100 µM
- TGI (LOX IMVI melanoma): > 100 µM
- TGI (MALME-3M melanoma): > 100 µM
- TGI (MCF7 breast): > 100 µM
- TGI (MDA-MB-231 breast): > 100 µM
- TGI (MDA-MB-435): > 100 µM
- TGI (MDA-N): > 100 µM
- TGI (MOLT-4 leukemia): > 100 µM
- TGI (NCI-H226 lung): > 100 µM
- TGI (NCI-H23 lung): > 100 µM
- TGI (NCI-H460 lung): > 100 µM
- TGI (NCI-H522 lung): 44.4 µM
- TGI (NCI/ADR-RES ovarian): > 100 µM
- TGI (OVCAR-3 ovarian): > 100 µM
- TGI (OVCAR-4 ovarian): > 100 µM
- TGI (OVCAR-5 ovarian): > 100 µM
- TGI (OVCAR-8 ovarian): > 100 µM
- TGI (PC-3 prostate): > 100 µM
- TGI (RPMI-8226 leukemia): > 100 µM
- TGI (RXF 393 renal): > 100 µM
- TGI (SF-268 CNS): > 100 µM
- TGI (SF-295 CNS): > 100 µM
- TGI (SK-MEL-2 melanoma): > 100 µM
- TGI (SK-MEL-28 melanoma): > 100 µM
- TGI (SK-MEL-5 melanoma): > 100 µM
- TGI (SN12C renal): > 100 µM
- TGI (SNB-19 CNS): > 100 µM
- TGI (SNB-75 CNS): > 100 µM
- TGI (SR leukemia): > 100 µM
- TGI (SW-620 colon): > 100 µM
- TGI (T-47D breast): > 100 µM
- TGI (TK-10 renal): > 100 µM
- TGI (U251 CNS): > 100 µM
- TGI (UACC-257 melanoma): > 100 µM
- TGI (UACC-62 melanoma): > 100 µM
- TGI (UO-31 renal): > 100 µM

SMILES: Cc1cc(C)c(C#N)c(SC(=S)NC(=O)c2ccccc2)n1
- TGI (786-0 renal): > 100 µM
- TGI (A498 renal): > 100 µM
- TGI (A549 NSCLC): > 100 µM
- TGI (ACHN renal): > 100 µM
- TGI (BT-549 breast): > 100 µM
- TGI (CAKI-1 renal): > 100 µM
- TGI (CCRF-CEM leukemia): > 100 µM
- TGI (COLO 205 colon): > 100 µM
- TGI (DU-145 prostate): > 100 µM
- TGI (EKVX NSCLC): > 100 µM
- TGI (HCC-2998 colon): > 100 µM
- TGI (HCT-116 colon): > 100 µM
- TGI (HCT-15 colon): > 100 µM
- TGI (HOP-62 NSCLC): > 100 µM
- TGI (HOP-92 NSCLC): > 100 µM
- TGI (HS 578T breast): > 100 µM
- TGI (HT29 colon): > 100 µM
- TGI (IGROV1 ovarian): > 100 µM
- TGI (K-562 leukemia): > 100 µM
- TGI (KM12 colon): > 100 µM
- TGI (M14 melanoma): > 100 µM
- TGI (MALME-3M melanoma): > 100 µM
- TGI (MCF7 breast): > 100 µM
- TGI (MDA-MB-231 breast): > 100 µM
- TGI (MDA-MB-435): > 100 µM
- TGI (MDA-N): > 100 µM
- TGI (MOLT-4 leukemia): > 100 µM
- TGI (NCI-H226 lung): > 100 µM
- TGI (NCI-H23 lung): > 100 µM
- TGI (NCI-H460 lung): > 100 µM
- TGI (NCI-H522 lung): > 100 µM
- TGI (NCI/ADR-RES ovarian): > 100 µM
- TGI (OVCAR-4 ovarian): > 100 µM
- TGI (OVCAR-5 ovarian): > 100 µM
- TGI (PC-3 prostate): > 100 µM
- TGI (RPMI-8226 leukemia): > 100 µM
- TGI (RXF 393 renal): > 100 µM
- TGI (SF-268 CNS): > 100 µM
- TGI (SF-539 CNS): > 100 µM
- TGI (SK-MEL-2 melanoma): > 100 µM
- TGI (SK-MEL-28 melanoma): > 100 µM
- TGI (SK-MEL-5 melanoma): > 100 µM
- TGI (SN12C renal): > 100 µM
- TGI (SNB-19 CNS): > 100 µM
- TGI (SNB-75 CNS): > 100 µM
- TGI (SR leukemia): > 100 µM
- TGI (SW-620 colon): > 100 µM
- TGI (T-47D breast): > 100 µM
- TGI (TK-10 renal): > 100 µM
- TGI (U251 CNS): > 100 µM
- TGI (UACC-257 melanoma): > 100 µM
- TGI (UACC-62 melanoma): > 100 µM
- TGI (UO-31 renal): > 100 µM

SMILES: Cc1cc2nc3c(N)nn(CCN(C)C)c3nc2cc1C
- TGI (786-0 renal): > 100 µM
- TGI (A498 renal): > 100 µM
- TGI (A549 NSCLC): > 100 µM
- TGI (ACHN renal): 95.5 µM
- TGI (BT-549 breast): > 100 µM
- TGI (CAKI-1 renal): > 100 µM
- TGI (CCRF-CEM leukemia): > 100 µM
- TGI (COLO 205 colon): > 100 µM
- TGI (DU-145 prostate): > 100 µM
- TGI (EKVX NSCLC): > 100 µM
- TGI (HCC-2998 colon): > 100 µM
- TGI (HCT-116 colon): > 100 µM
- TGI (HCT-15 colon): > 100 µM
- TGI (HOP-62 NSCLC): > 100 µM
- TGI (HOP-92 NSCLC): > 100 µM
- TGI (HS 578T breast): > 100 µM
- TGI (HT29 colon): > 100 µM
- TGI (IGROV1 ovarian): > 100 µM
- TGI (K-562 leukemia): > 100 µM
- TGI (KM12 colon): > 100 µM
- TGI (LOX IMVI melanoma): 76.2 µM
- TGI (M14 melanoma): > 100 µM
- TGI (MALME-3M melanoma): > 100 µM
- TGI (MCF7 breast): > 100 µM
- TGI (MDA-MB-231 breast): > 100 µM
- TGI (MDA-MB-435): > 100 µM
- TGI (MDA-N): > 100 µM
- TGI (MOLT-4 leukemia): > 100 µM
- TGI (NCI-H226 lung): 79.4 µM
- TGI (NCI-H23 lung): > 100 µM
- TGI (NCI-H460 lung): > 100 µM
- TGI (NCI-H522 lung): > 100 µM
- TGI (NCI/ADR-RES ovarian): > 100 µM
- TGI (OVCAR-3 ovarian): > 100 µM
- TGI (OVCAR-4 ovarian): > 100 µM
- TGI (OVCAR-5 ovarian): > 100 µM
- TGI (OVCAR-8 ovarian): > 100 µM
- TGI (PC-3 prostate): > 100 µM
- TGI (RPMI-8226 leukemia): > 100 µM
- TGI (RXF 393 renal): > 100 µM
- TGI (SF-268 CNS): > 100 µM
- TGI (SF-295 CNS): > 100 µM
- TGI (SF-539 CNS): > 100 µM
- TGI (SK-MEL-2 melanoma): > 100 µM
- TGI (SK-MEL-28 melanoma): > 100 µM
- TGI (SK-MEL-5 melanoma): > 100 µM
- TGI (SK-OV-3 ovarian): > 100 µM
- TGI (SN12C renal): > 100 µM
- TGI (SNB-19 CNS): > 100 µM
- TGI (SNB-75 CNS): 97.9 µM
- TGI (SR leukemia): > 100 µM
- TGI (SW-620 colon): > 100 µM
- TGI (T-47D breast): > 100 µM
- TGI (TK-10 renal): > 100 µM
- TGI (U251 CNS): > 100 µM
- TGI (UACC-257 melanoma): > 100 µM
- TGI (UACC-62 melanoma): > 100 µM
- TGI (UO-31 renal): > 100 µM
